# Measurements published in patent US8338565B2, “Macrocyclic compounds for inhibition of tumor necrosis factor alpha” (Ensemble Therapeutics Corporation, priority 2008, dated 2012).
# Numbered stars: 1 amine (or outer) side, 2 acyl side, 3 side chain; on linkers, the order of the positions; unused ones are H or OH. Bridge positions count the residues as written; N and C are the ends. Square brackets hold non-standard residues; d marks the D form. Peptide text beside a SMILES is read from it. Tartaroyl(2R,3R-(OAc)2) = CC(=O)O[C@@H](C(=O)[*:1])[C@@H](OC(C)=O)C(=O)[*:2]; Phe(4-CF3) = N[C@@H](Cc1ccc(C(F)(F)F)cc1)C(=O)O; Phe(4-COOH) = N[C@@H](Cc1ccc(C(=O)O)cc1)C(=O)O; dPhe(2-CF3) = N[C@H](Cc1ccccc1C(F)(F)F)C(=O)O; Bip = N[C@@H](Cc1ccc(-c2ccccc2)cc1)C(=O)O; dPhe(4-NH2) = Nc1ccc(C[C@@H](N)C(=O)O)cc1; Phe(4-Br) = N[C@@H](Cc1ccc(Br)cc1)C(=O)O; dPhe(2-CN) = N#Cc1ccccc1C[C@@H](N)C(=O)O; Phe(4-NH2) = Nc1ccc(C[C@H](N)C(=O)O)cc1; dAla(2-furyl) = N[C@H](Cc1ccco1)C(=O)O; d(hPhe) = N[C@H](CCc1ccccc1)C(=O)O; mTyr = N[C@@H](Cc1cccc(O)c1)C(=O)O; 3Pal = N[C@@H](Cc1cccnc1)C(=O)O; d2Thi = N[C@H](Cc1cccs1)C(=O)O; Suc = O=C(CCC(=O)[*:2])[*:1]; Aib = CC(C)(N)C(=O)O; Ava = NCCCCC(=O)O; GABA = NCCCC(=O)O
# Target: T1, TNFα / TNFα receptor (TNFα R1/Fc) (Homo sapiens, UniProt P01375)
# T1 construct: purchased R&D Systems
# T1 sequence (P01375 77-233 limits assumed, species assumed): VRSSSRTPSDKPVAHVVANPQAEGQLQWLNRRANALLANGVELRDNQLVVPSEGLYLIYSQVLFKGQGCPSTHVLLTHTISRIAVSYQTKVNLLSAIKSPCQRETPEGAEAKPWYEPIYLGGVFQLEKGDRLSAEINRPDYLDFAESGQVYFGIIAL
# Assay: Inhibition of binding of TNFα to the TNFα receptor (plate ELISA competition)
# Settings: Activity (IC50, inhibition of TNFα binding to TNFα R1/Fc), Table 2
# Outline: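 Plates were coated with TNFα at 15 nM. Test compound and 8.33 nM receptor-Fc (PBST, 2% DMSO) were first mixed in solution for 30 min at room temperature, then transferred to the plates for another 30 min. Competition was read by absorbance at 450 nm after HRP anti-human IgG Fc detection with TMB.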
row,Structure (SMILES),IC50 [µM]
1,O=C1COc2ccc(cc2)C[C@@H](C(=O)N[C@@H](Cc2ccccc2)C(=O)O)NC(=O)[C@H](CCc2ccccc2)NC(=O)[C@@H](Cc2ccc(-c3ccccc3)cc2)NC(=O)[C@H](Cc2cccs2)N1 [Compound 481],< 10
2,O=C1COc2ccc(cc2)C[C@@H](C(=O)N[C@H](Cc2ccccc2)C(=O)O)NC(=O)[C@H](Cc2cccs2)NC(=O)[C@@H](Cc2ccc(-c3ccccc3)cc2)NC(=O)[C@H](Cc2cccs2)N1 [Compound 588],< 10

# Same assay, conditions: Table 2; read-out: Activity (IC50, inhibition of TNFα binding to TNFα R1/Fc)
row,IC50 [µM],Structure (SMILES)
1,< 10,O=C(NCS(=O)(=O)O)[C@@H]1Cc2ccc(cc2)NC(=O)[C@H](O)[C@@H](O)C(=O)N[C@H](Cc2cccs2)C(=O)N[C@@H](Cc2ccc(-c3ccccc3)cc2)C(=O)N[C@H](CCc2ccccc2)C(=O)N1 [Compound 593]
2,10 to 30,O=C1CCC(=O)N[C@H](Cc2cccs2)C(=O)N[C@@H](Cc2ccc(Br)cc2)C(=O)N[C@H](Cc2ccco2)C(=O)N[C@@H](C(=O)O)Cc2ccc(cc2)N1 [Compound 159] ([d2Thi][Phe(4-Br)][dAla(2-furyl)][dPhe(4-NH2)]-OH; linker N-4 via Suc)
3,< 10,O=C1COc2ccc(cc2)C[C@@H](C(=O)O)NC(=O)[C@H](Cc2ccccc2F)NC(=O)[C@@H](Cc2ccc(-c3ccccc3)cc2)NC(=O)[C@H](Cc2c[nH]c3ccccc23)N1 [Compound 733]
4,> 100,O=C(O)CCCCNC(=O)[C@@H]1Cc2ccc(cc2)NC(=O)CCC(=O)N[C@H](Cc2ccccc2)C(=O)N[C@@H](Cc2ccc(-c3ccccc3)cc2)C(=O)N[C@H](CCc2ccccc2)C(=O)N1 [Compound 461] ([dF][Bip][d(hPhe)][Phe(4-NH2)][Ava]-OH; linker N-4 via Suc)
5,< 10,O=C1COc2ccc(cc2)C[C@@H](C(=O)O)NC(=O)[C@H](CCc2ccccc2)NC(=O)[C@@H](CCc2ccccc2)NC(=O)[C@H](CCc2ccccc2)N1 [Compound 724]
6,30 to 100,O=C1CCC(=O)N[C@H](Cc2ccccc2)C(=O)N[C@@H](Cc2ccc(-c3ccccc3)cc2)C(=O)N[C@H](Cc2ccccc2)C(=O)N[C@H](C(=O)O)Cc2ccc(cc2)N1 [Compound 128] ([dF][Bip][dF][Phe(4-NH2)]-OH; linker N-4 via Suc)
7,> 100,CC(C)(NC(=O)[C@@H]1Cc2ccc(cc2)NC(=O)CCC(=O)N[C@H](Cc2cccs2)C(=O)N[C@@H](Cc2ccc(-c3ccccc3)cc2)C(=O)N[C@H](CCc2ccccc2)C(=O)N1)C(=O)O [Compound 452] ([d2Thi][Bip][d(hPhe)][Phe(4-NH2)][Aib]-OH; linker N-4 via Suc)
8,> 100,O=C1COc2ccc(cc2)C[C@@H](C(=O)O)NC(=O)[C@H](Cc2ccccc2)NC(=O)[C@@H](Cc2ccc(F)cc2)NC(=O)[C@H](Cc2cccs2)N1 [Compound 355]
9,30 to 100,O=C1CCC(=O)NN(Cc2ccccc2)C(=O)N[C@@H](Cc2ccc(-c3ccccc3)cc2)C(=O)N[C@H](Cc2ccccc2)C(=O)N[C@H](C(=O)O)Cc2ccc(cc2)N1 [Compound 119]
10,30 to 100,N#Cc1ccccc1C[C@H]1NC(=O)CCC(=O)Nc2ccc(cc2)C[C@@H](C(=O)O)NC(=O)[C@@H](Cc2ccccc2)NC(=O)[C@H](Cc2ccc(C(F)(F)F)cc2)NC1=O [Compound 129] ([dPhe(2-CN)][Phe(4-CF3)][dF][Phe(4-NH2)]-OH; linker N-4 via Suc)
11,> 100,O=C1CCCc2cn(nn2)C[C@@H](C(=O)O)NC(=O)[C@@H](Cc2ccccc2)NC(=O)[C@H](Cc2ccc(C(F)(F)F)cc2)NC(=O)[C@@H](CCc2ccccc2)N1 [Compound 543]
12,30 to 100,O=C1COc2ccc(cc2)C[C@@H](C(=O)O)NC(=O)[C@H](Cc2ccccc2)NC(=O)[C@@H](Cc2ccc(-c3ccccc3)cc2)NC(=O)[C@@H](Cc2cccs2)N1 [Compound 211]
13,> 100,O=C1N[C@@H](Cc2ccccc2)C(=O)N[C@@H](C(=O)O)Cc2ccc(cc2)NC(=O)[C@H](O)[C@@H](O)C(=O)N[C@@H](Cc2cccs2)C(=O)N[C@H]1Cc1ccc(-c2ccccc2)cc1 [Compound 280]
14,> 100,O=C1COc2ccc(cc2)C[C@@H](C(=O)O)NC(=O)[C@@H](Cc2ccc(C(F)(F)F)cc2)NC(=O)[C@H](Cc2ccc(-c3ccccc3)cc2)NC(=O)[C@@H](Cc2cccs2)N1 [Compound 531]
15,< 10,O=C(O)CNC(=O)CNC(=O)[C@@H]1Cc2ccc(cc2)OCC(=O)N[C@@H](Cc2cccs2)C(=O)N[C@H](Cc2ccc(-c3ccccc3)cc2)C(=O)N[C@@H](CCc2ccccc2)C(=O)N1 [Compound 479]
16,10 to 30,"CC(=O)O[C@H]1C(=O)Nc2ccc(cc2)C[C@H](C(=O)O)NC(=O)[C@@H](CCc2ccccc2)NC(=O)[C@H](Cc2ccc(Br)cc2)NC(=O)[C@@H](Cc2ccccc2)NC(=O)[C@@H]1OC(C)=O [Compound 218] ([dF][Phe(4-Br)][d(hPhe)][dPhe(4-NH2)]-OH; linker N-4 via Tartaroyl(2R,3R-(OAc)2))"
17,> 100,O=C1CCC(=O)N[C@H](Cc2cccs2)C(=O)N[C@@H](Cc2cccc(O)c2)C(=O)N[C@H](Cc2ccccc2)C(=O)N[C@H](C(=O)O)Cc2ccc(cc2)N1 [Compound 102] ([d2Thi][mTyr][dF][Phe(4-NH2)]-OH; linker N-4 via Suc)

row,IC50 [µM],Structure (SMILES)
1,< 10,CN1C(=O)COc2ccc(cc2)C[C@@H](C(=O)N[C@H](CCc2ccccc2)C(=O)O)NC(=O)[C@H](Cc2c[nH]c3ccccc23)NC(=O)[C@@H](Cc2ccc(-c3ccccc3)cc2)NC(=O)[C@@H]1Cc1c[nH]c2ccccc12 [Compound 747]
2,30 to 100,CC(C)(C)Oc1ccc(C[C@@H]2NC(=O)[C@H](Cc3ccc(-c4ccccc4)cc3)NC(=O)[C@H](Cc3cccs3)NC(=O)COc3ccc(cc3)C[C@@H](C(=O)O)NC2=O)cc1 [Compound 347]
3,> 100,O=C1CCC(=O)N[C@H](Cc2cccs2)C(=O)N[C@@H](Cc2ccc(-c3ccccc3)cc2)C(=O)N[C@@H](Cc2cccnc2)C(=O)N[C@H](C(=O)O)Cc2ccc(cc2)N1 [Compound 52] ([d2Thi][Bip][3Pal][Phe(4-NH2)]-OH; linker N-4 via Suc)
4,> 100,O=C1CCC(=O)N[C@H](CCc2ccccc2)C(=O)N[C@@H](Cc2ccc(-c3ncccn3)cc2)C(=O)N[C@H](Cc2ccccc2)C(=O)N[C@H](C(=O)O)Cc2ccc(cc2)N1 [Compound 114]
5,> 100,NCCCC(=O)N[C@H]1CC(=O)Nc2ccc(cc2)C[C@@H](C(=O)N[C@@H](Cc2ccccc2)C(=O)O)NC(=O)[C@@H](Cc2ccccc2)NC(=O)[C@H](Cc2ccc(-c3ccccc3)cc2)NC(=O)[C@@H](Cc2cccs2)NC1=O [Compound 529] (H-[GABA]D[d2Thi][Bip][dF][Phe(4-NH2)]F-OH; lactam 2-6)
6,> 100,O=C1COc2ccc(cc2)C[C@@H](C(=O)O)NC(=O)[C@H](c2ccccc2)NC(=O)[C@@H](Cc2ccc(-c3ccccc3)cc2)NC(=O)[C@H](Cc2cccs2)N1 [Compound 368]
7,> 100,C[C@@H](NC(=O)[C@@H]1Cc2ccc(cc2)NC(=O)CCC(=O)N[C@H](Cc2cccs2)C(=O)N[C@@H](Cc2ccc(-c3ccccc3)cc2)C(=O)N[C@H](CCc2ccccc2)C(=O)N1)C(=O)O [Compound 446] ([d2Thi][Bip][d(hPhe)][Phe(4-NH2)][dA]-OH; linker N-4 via Suc)
8,30 to 100,O=C1CCC(=O)N[C@H](Cc2cccs2)C(=O)N[C@@H](Cc2ccc(-c3ccccc3)cc2)C(=O)N[C@H](Cc2ccccc2C(F)(F)F)C(=O)N[C@H](C(=O)O)Cc2ccc(cc2)N1 [Compound 77] ([d2Thi][Bip][dPhe(2-CF3)][Phe(4-NH2)]-OH; linker N-4 via Suc)
9,> 100,O=C1CCC(=O)N[C@H](Cc2cccs2)C(=O)N[C@@H](Cc2ccc(-c3ccccc3)cc2)C(=O)N[C@@H](Cc2ccccc2)C(=O)N[C@@H](C(=O)O)Cc2ccc(cc2)N1 [Compound 497] ([d2Thi][Bip]F[dPhe(4-NH2)]-OH; linker N-4 via Suc)
10,< 10,O=C1COc2ccc(cc2)C[C@@H](C(=O)O)NC(=O)[C@@H](CCc2ccccc2)NC(=O)[C@H](Cc2ccc(-c3ccccc3)cc2)NC(=O)[C@@H](Cc2cccc(C(F)(F)F)c2)N1 [Compound 520]
11,< 10,O=C1COc2ccc(cc2)C[C@@H](C(=O)O)NC(=O)[C@H](CCc2ccccc2)NC(=O)[C@@H](Cc2ccc(-c3ccc(O)cc3)cc2)NC(=O)[C@H](Cc2cccs2)N1 [Compound 656]
12,> 100,O=C(O)[C@@H]1Cc2ccc(cc2)NC(=O)[C@H](O)[C@@H](O)C(=O)N[C@@H](Cc2cccs2)C(=O)N[C@H](Cc2ccc(-c3ccccc3)cc2)C(=O)N[C@@H](Cc2ccccc2)C(=O)N1 [Compound 271]
13,10 to 30,O=C(O)[C@@H]1Cc2ccc(cc2)NC(=O)[C@H](O)[C@@H](O)C(=O)N[C@H](Cc2cccs2)C(=O)N[C@@H](Cc2ccc(-c3ccccc3)cc2)C(=O)N[C@H](Cc2ccco2)C(=O)N1 [Compound 284]
14,> 100,O=C1COc2ccc(cc2)C[C@@H](C(=O)O)NC(=O)[C@H](CCc2ccccc2)NC(=O)[C@@H](Cc2ccc(-c3cccnc3)cc2)NC(=O)[C@H](Cc2cccnc2)N1 [Compound 668]
15,> 100,O=C1N[C@H](CCc2ccccc2)C(=O)N[C@@H](Cc2ccc(-c3ccccc3)cc2)C(=O)N[C@H](Cc2ccccc2)C(=O)N[C@H](C(=O)O)Cc2ccc1cc2 [Compound 337] ([d(hPhe)][Bip][dF][Phe(4-COOH)]-OH; lactam N-4)
16,< 10,O=C1COc2ccc(cc2)C[C@@H](C(=O)N[C@@H](Cc2ccccc2)c2nnn[nH]2)NC(=O)[C@H](CCc2ccccc2)NC(=O)[C@@H](Cc2ccc(-c3ccccc3)cc2)NC(=O)[C@H](Cc2ccncc2)N1 [Compound 592]
